From article PMC9936538, “Structure–Activity Relationship of N-Ethyl-Hexedrone Analogues: Role of the α-Carbon Side-Chain Length in the Mechanism of Action, Cytotoxicity, and Behavioral Effects in Mice” (ACS Chemical Neuroscience, 2023)

Key:
hSERT = biological target: T1, hSERT (Homo sapiens, UniProt P31645); experiment: Monoamine uptake inhibition, [3H]5-HT uptake at hSERT in transfected HEK293 cells; format: cell-based
T1 construct: expressed in transfected cells; host or cells: HEK293
Description: Human embryonic kidney cells (HEK293) stably transfected with the human DAT and SERT were used for both the uptake inhibition and transporter binding assays.[6] Cells were cultured in DMEM supplemented with heat-inactivated 10% fetal bovine serum (FBS), […], and 100 U/mL penicillin at 37 °C in a 5% CO2 humidified atmosphere. Geneticin (G418; 50 μg/mL) was added to maintain the selection process. Upon approximately 80% confluence, cells were washed with 5 mL of phosphate-buffered saline (PBS) and 1 mL of trypsin/EDTA was added. After 3 min, 9 mL of DMEM was added to stop cell trypsinization. If necessary, centrifugation was performed to pellet the cells. Cells were then resuspended, counted, and seeded onto poly-D-lysine coated (24 h/prior to the experiment) 96-well plates at a density of 0.36 million cells per well for the uptake inhibition assays.
Assays were performed as previously described.[8] On the test day, the medium was removed from the cell culture 96-well plates and immediately replaced with 200 μL of Krebs-HEPES-buffer (KHB; 10 mM HEPES, 120 mM NaCl, 3 mM KCl, 2 mM CaCl2·2H2O, 2 mM MgCl2·6H2O supplemented with 20 mM D-glucose; pH 7.3). To ensure equilibrated conditions, cells were incubated with different concentrations of the drugs in KHB at a final volume of 50 μL/well for 5 min (preincubation). The preincubation solution was removed, and cells were incubated with the tritiated compounds, 0.02 μM [^3H]MPP^+ for hDAT and 0.1 μM [^3H]5-HT for hSERT, together with various concentrations of the test drugs in KHB. The uptake incubation times were 3 min for hDAT and 1 min for hSERT. The reaction was stopped by rapid removal of the incubation solution and washout with ice-cold KHB. Cells were lysed with 1% sodium dodecyl sulfate, and lysates were subsequently transferred to vials containing scintillation fluid. Radioactivity was quantified with a beta-scintillation counter (PerkinElmer, Waltham, MA, USA). The uptake in the absence of the test drugs was normalized to 100%, and the uptake in the presence of various concentrations of cathinones was expressed as a percentage thereof. […] Four independent experiments carried out on triplicates were performed.
For in vitro assays, data were normalized with 100% defined as the mean of the technical replicates in the control group and expressed as mean ± SEM. Nonlinear regression was used to fit the different competition curves. Data were plotted and best fitted to a sigmoidal dose–response curve from which an IC50 or LC50 value was obtained. Transporter ratios were calculated as (1/DAT IC50: 1/SERT IC50). […] The Cheng–Prusoff equation was used to calculate Ki (affinity): Ki = EC50/(1 + [radioligand concentration/Kd]).[65] The sample size for behavioral experiments was determined using GPower software. One-way or two-way ANOVA, and subsequent Tukey’s posthoc test, conducted only if F was significant, was used to determine the effects of cathinones on cytotoxicity, HLA, OF, and CPP experiments. The α error probability was set at 0.05 (p < 0.05). The exact size group for the behavioral experiments is shown in the corresponding figure legends. All statistic calculations were carried out using GraphPad Prism (GraphPad software, San Diego, CA, USA).

Swiss CD-1 mice [1] = experiment: Open-field (OF) test, center versus periphery (anxiety-like behavior); format: in vivo; conditions: 10 mg/kg i.p.
Description: Male Swiss CD-1 mice (Janvier, Le Genest, France) weighing 30–35 g (6–8 weeks old), housed in temperature-controlled conditions (22 ± 1 °C) under a 12 h light/dark cycle and with free access to food and drinking water (standard laboratory diet, Panlab SL, Barcelona, Spain), were randomly assigned to an experimental group. Efforts were made to minimize animal use and suffering.
The anxiety-like effects of the test compounds were assessed through an OF test as described.[64] Animals were placed individually in the center of an open-field arena (25 cm length × 25 cm width × 40 cm height), and the time spent, in seconds, in the center (8 × 8 cm) or the periphery of the arena was monitored for 60 min (Smart 3.0 Panlab, Barcelona, Spain).

Swiss CD-1 mice [2] = system: Swiss CD-1 mice; set-up: method as in PMID 33155384; conditions: 10 and 25 mg/kg injections; cited from earlier work
Swiss CD-1 mice [3] = system: Swiss CD-1 mice; set-up: method as in PMID 32535718; conditions: 4 and 16 mg/kg subcutaneous injections; cited from earlier work
[4] = system: NGF-differentiated PC12 cells; experiment: Cytotoxicity in NGF-differentiated PC12 cells, WST-8 cell viability assay; format: cell-based; conditions: WST-8, 0.01–8.00 mM, 24 h
Description: Pheochromocytoma cells (PC12) cells were cultured in collagen-coated dishes in DMEM supplemented with heat-inactivated 5% FBS, 10% horse serum, 10 mM HEPES, 2 mM glutamine, 25 UI/mL penicillin, and 25 μg/mL streptomycin (maintenance medium) and grown at 37 °C in a humidified 5% CO2 atmosphere. Cell differentiation was performed as described[54] with minor modifications. In brief, cells were seeded (250.000 cells/well) onto 96-well plates in the maintenance medium, and after 24 h, the medium was changed to a differentiation medium containing 50 ng/mL NGF. After 24 h, neurite outgrowth was already apparent.
Treatments with different concentrations of the drug in DMEM were performed 48 h after cell differentiation. 10 μL of the tested drug was added per well, in triplicate, and cells were incubated for 24 h at 37 °C in a humidified 5% CO2 atmosphere. Thereafter, the medium was removed and immediately replaced with a maintenance medium. 10 μL of the CCK-8 Cell Counting Kit, based on 2-(2-methoxy-4-nitrophenyl)-3-(4-nitrophenyl)-5-(2,4-disulfophenyl)-2H-tetrazolium, monosodium salt (WST-8), was added per well and was incubated for 2 h at 37 °C in a humidified 5% CO2 atmosphere. This method has been defined as a good alternative to the 3-(4,5-dimethylthiazol-2-yl)-2,5-diphenyltetrazoliumbromide (MTT) assay.[63] Optical density was measured at 450 nm, using a microplate reader.
For in vitro assays, data were normalized with 100% defined as the mean of the technical replicates in the control group and expressed as mean ± SEM. Nonlinear regression was used to fit the different competition curves. Data were plotted and best fitted to a sigmoidal dose–response curve from which an IC50 or LC50 value was obtained. Transporter ratios were calculated as (1/DAT IC50: 1/SERT IC50). Although IC50 values at inhibiting 5-HT uptake for some compounds tested are expressed as >100 μM for clarity purposes, DAT/SERT ratios were calculated with the original raw data. The Cheng–Prusoff equation was used to calculate Ki (affinity): Ki = EC50/(1 + [radioligand concentration/Kd]).[65] The sample size for behavioral experiments was determined using GPower software. One-way or two-way ANOVA, and subsequent Tukey’s posthoc test, conducted only if F was significant, was used to determine the effects of cathinones on cytotoxicity, HLA, OF, and CPP experiments. The α error probability was set at 0.05 (p < 0.05). The exact size group for the behavioral experiments is shown in the corresponding figure legends. All statistic calculations were carried out using GraphPad Prism (GraphPad software, San Diego, CA, USA).

T1 sequence (P31645 whole entry): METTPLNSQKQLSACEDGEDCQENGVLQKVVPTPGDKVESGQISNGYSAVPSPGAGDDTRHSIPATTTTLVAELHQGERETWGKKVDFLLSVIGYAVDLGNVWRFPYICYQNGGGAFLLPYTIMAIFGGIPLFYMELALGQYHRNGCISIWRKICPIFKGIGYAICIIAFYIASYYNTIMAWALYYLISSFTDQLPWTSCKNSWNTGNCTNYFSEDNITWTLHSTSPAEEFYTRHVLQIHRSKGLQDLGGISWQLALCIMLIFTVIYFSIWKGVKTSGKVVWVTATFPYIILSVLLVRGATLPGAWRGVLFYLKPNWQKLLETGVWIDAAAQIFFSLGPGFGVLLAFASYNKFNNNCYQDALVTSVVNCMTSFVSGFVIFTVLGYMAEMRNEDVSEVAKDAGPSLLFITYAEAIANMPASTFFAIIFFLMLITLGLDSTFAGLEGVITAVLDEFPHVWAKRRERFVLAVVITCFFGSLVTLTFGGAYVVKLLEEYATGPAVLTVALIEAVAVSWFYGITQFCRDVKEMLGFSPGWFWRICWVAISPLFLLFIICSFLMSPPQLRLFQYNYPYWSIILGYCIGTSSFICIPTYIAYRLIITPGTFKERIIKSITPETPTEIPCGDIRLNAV

SMILES	IC50 (hSERT) [µM]	anxiogenic effect in OF test (Swiss CD-1 mice [1])	locomotor activity (Swiss CD-1 mice [2])	CPP (Swiss CD-1 mice [3])	concentration at which cytotoxicity starts [4] [µM]
CCNC(CC)C(=O)c1ccccc1 (stereo not drawn) [NEB, N-ethyl-buphedrone]	51.2				
CCNC(C)C(=O)c1ccccc1 (stereo not drawn) [NEC, N-ethyl-cathinone]	> 100				
CCCCC(NCC)C(=O)c1ccccc1 (stereo not drawn) [NEH, N-ethyl-hexedrone]	> 100	acute anxiogenic effects	increase in locomotor activity	significant CPP	
CCCCCC(NCC)C(=O)c1ccccc1 (stereo not drawn) [NEHP, N-ethyl-heptedrone]	> 100				100
CCCC(NCC)C(=O)c1ccccc1 (stereo not drawn) [NEPD, N-ethyl-pentedrone]	76.4				
